Laboratory results: ChEMBL document CHEMBL1133215, “Natural and synthetic analogues of actinomycin D as Grb2-SH2 domain blockers” (Bioorg Med Chem Lett, 2000)
Activity calls are given as the source filed them. No cut-off for these calls is given here. Numbered stars: 1 amine (or outer) side, 2 acyl side, 3 side chain; on linkers, the order of the positions; unused ones are H or OH. Bridge positions count the residues as written; N and C are the ends. Square brackets hold non-standard residues; d marks the D form. Peptide text beside a SMILES is read from it. I, II: the chains in the order shown. Actinocin(1to9) = Cc1c2oc3c(C)ccc(C(=O)[*:2])c3nc-2c(C(=O)[*:1])c(N)c1=O; NMeV = CN[C@H](C(=O)O)C(C)C; Sar = CNCC(=O)O

Experiments:
[1] = biological target: Growth factor receptor-bound protein 2 (Mus musculus) (UniProt Q60631); assay: In vitro inhibitory activity against Shc/Grb2 interactions in B104-1-1 cells at 5 uM; type: functional, cell-based
[2] = biological target: Growth factor receptor-bound protein 2 (Mus musculus, UniProt Q60631); assay: In vitro binding assay of Shc-derived phosphopeptide to Growth factor receptor bound protein 2 SH2 in B104-1-1 cells was determined; type: cell-based
[3] = tested on: B104; assay: Growth inhibitory activity was tested against B104-1-1 cells; type: functional, Mus musculus
[4] = biological target: Growth factor receptor-bound protein 2 (Mus musculus) (UniProt Q60631); assay: In vitro inhibitory activity against Shc/Grb2 interactions in B104-1-1 cells at 2 uM; type: functional, cell-based
[5] = tested on: B104; assay: Growth inhibitory activity against B104-1-1 cells; Not active; type: functional, cell-based; conditions: Mus musculus

Growth factor receptor-bound protein 2, sequence (Q60631 whole entry): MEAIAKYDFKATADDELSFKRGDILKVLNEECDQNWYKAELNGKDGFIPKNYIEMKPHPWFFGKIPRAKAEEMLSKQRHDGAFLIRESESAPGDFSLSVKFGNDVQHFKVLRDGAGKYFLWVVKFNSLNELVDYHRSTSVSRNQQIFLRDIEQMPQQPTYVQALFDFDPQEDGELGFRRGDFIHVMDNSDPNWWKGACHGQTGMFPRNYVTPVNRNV
Growth factor receptor-bound protein 2 (Mus musculus), sequence (Q60631 whole entry): as above

Cc1c2oc3c(C)ccc(C(=O)N[C@@H]4C(=O)N[C@H](C(C)C)C(=O)N5CCC[C@H]5C(=O)N(C)CC(=O)N[C@H](C(C)C)C(=O)O[C@@H]4C)c3nc-2c(C(=O)N[C@@H]2C(=O)N[C@H](C(C)C)C(=O)N3CCC[C@H]3C(=O)N(C)CC(=O)N[C@H](C(C)C)C(=O)O[C@@H]2C)c(N)c1=O
inhibition [1]: 86% | IC50 [2]: 1000 nM | GI50 [3]: 3 nM | inhibition [4]: 72%

Cc1c2oc3c(C)ccc(C(=O)N[C@@H]4C(=O)N[C@H](C(C)C)C(=O)N5CCC[C@H]5C(=O)N(C)CC(=O)N[C@H](Cc5ccc(O)cc5)C(=O)O[C@@H]4C)c3nc-2c(C(=O)N[C@@H]2C(=O)N[C@H](C(C)C)C(=O)N3CCC[C@H]3C(=O)N(C)CC(=O)N[C@H](Cc3ccc(O)cc3)C(=O)O[C@@H]2C)c(N)c1=O (stereo in doubt; 5) [listing 1 of 2 here]
inhibition [1]: 27.4% | GI50 [5]: inactive | inhibition [4]: 3.5%

Cc1c2oc3c(C)ccc(C(=O)N[C@@H]4C(=O)N[C@H](C(C)C)C(=O)N5CCC[C@H]5C(=O)N(C)CC(=O)N[C@@H](Cc5ccc(O)cc5)C(=O)O[C@@H]4C)c3nc-2c(C(=O)N[C@@H]2C(=O)N[C@H](C(C)C)C(=O)N3CCC[C@H]3C(=O)N(C)CC(=O)N[C@@H](Cc3ccc(O)cc3)C(=O)O[C@@H]2C)c(N)c1=O (stereo in doubt; 10) [listing 1 of 2 here]
IC50 [2]: 800 nM

CC[C@@H](C)[C@H]1NC(=O)CN(C)C(=O)[C@@H]2CCCN2C(=O)[C@@H]([C@H](C)CC)NC(=O)[C@@H](NC(=O)c2c3nc4c(C(=O)N[C@@H]5C(=O)N[C@H]([C@H](C)CC)C(=O)N6CCC[C@H]6C(=O)N(C)CC(=O)N[C@H]([C@H](C)CC)C(=O)O[C@@H]5C)ccc(C)c4oc-3c(C)c(=O)c2N)[C@@H](C)OC1=O
inhibition [1]: 25.3% | IC50 [2]: 7600 nM | GI50 [3]: 1 nM | inhibition [4]: 15.1%

Cc1c2oc3c(C)ccc(C(=O)N[C@@H]4C(=O)N[C@H](Cc5ccc(O)cc5)C(=O)N5CCC[C@H]5C(=O)N(C)CC(=O)N[C@@H](C(C)C)C(=O)O[C@@H]4C)c3nc-2c(C(=O)N[C@@H]2C(=O)N[C@H](Cc3ccc(O)cc3)C(=O)N3CCC[C@H]3C(=O)N(C)CC(=O)N[C@@H](C(C)C)C(=O)O[C@@H]2C)c(N)c1=O (stereo in doubt; 1) [listing 1 of 2 here]
IC50 [2]: 500 nM

Cc1c2oc3c(C)ccc(C(=O)N[C@@H]4C(=O)N[C@H](C(C)C)C(=O)N5CCC[C@H]5C(=O)N(C)CC(=O)N[C@@H](Cc5ccc(O)cc5)C(=O)O[C@@H]4C)c3nc-2c(C(=O)N[C@@H]2C(=O)N[C@H](C(C)C)C(=O)N3CCC[C@H]3C(=O)N(C)CC(=O)N[C@@H](Cc3ccc(O)cc3)C(=O)O[C@@H]2C)c(N)c1=O (stereo in doubt; 8) [listing 1 of 2 here]
inhibition [1]: 28.5% | inhibition [4]: 15.9%

Cc1c2oc3c(C)ccc(C(=O)N[C@@H]4C(=O)N[C@H](C(C)C)C(=O)N5CCC[C@H]5C(=O)N(C)CC(=O)N[C@@H](Cc5ccc(O)cc5)C(=O)O[C@@H]4C)c3nc-2c(C(=O)N[C@@H]2C(=O)N[C@H](C(C)C)C(=O)N3CCC[C@H]3C(=O)N(C)CC(=O)N[C@@H](Cc3ccc(O)cc3)C(=O)O[C@@H]2C)c(N)c1=O (stereo in doubt; 10) [listing 2 of 2 here]
inhibition [1]: 89.7% | inhibition [4]: 75.9%

Cc1c2oc3c(C)ccc(C(=O)N[C@@H]4C(=O)N[C@H](Cc5ccc(O)cc5)C(=O)N5CCC[C@H]5C(=O)N(C)CC(=O)N[C@@H](C(C)C)C(=O)O[C@@H]4C)c3nc-2c(C(=O)N[C@@H]2C(=O)N[C@H](Cc3ccc(O)cc3)C(=O)N3CCC[C@H]3C(=O)N(C)CC(=O)N[C@@H](C(C)C)C(=O)O[C@@H]2C)c(N)c1=O (stereo in doubt; 1) [listing 2 of 2 here]
inhibition [1]: 90.7% | GI50 [5]: inactive | inhibition [4]: 84.3%

Cc1c2oc3c(C)ccc(C(=O)N[C@@H]4C(=O)N[C@H](C(C)C)C(=O)N5CCC[C@H]5C(=O)N(C)CC(=O)N[C@H](Cc5ccc(O)cc5)C(=O)O[C@@H]4C)c3nc-2c(C(=O)N[C@@H]2C(=O)N[C@H](C(C)C)C(=O)N3CCC[C@H]3C(=O)N(C)CC(=O)N[C@H](Cc3ccc(O)cc3)C(=O)O[C@@H]2C)c(N)c1=O (stereo in doubt; 12) [listing 1 of 2 here]
inhibition [1]: 90.2% | inhibition [4]: 79.9%

Cc1c2oc3c(C)ccc(C(=O)N[C@@H]4C(=O)N[C@H](Cc5ccccc5)C(=O)N5CCC[C@H]5C(=O)N(C)CC(=O)N[C@@H](C(C)C)C(=O)O[C@@H]4C)c3nc-2c(C(=O)N[C@@H]2C(=O)N[C@H](Cc3ccccc3)C(=O)N3CCC[C@H]3C(=O)N(C)CC(=O)N[C@@H](C(C)C)C(=O)O[C@@H]2C)c(N)c1=O
inhibition [1]: 82.8% | IC50 [2]: 1200 nM | GI50 [3]: 8 nM | inhibition [4]: 73.6%

Cc1c2oc3c(C)ccc(C(=O)N[C@@H]4C(=O)N[C@H](C(C)C)C(=O)N5CCC[C@H]5C(=O)N(C)CC(=O)N[C@@H](Cc5ccccc5)C(=O)O[C@@H]4C)c3nc-2c(C(=O)N[C@@H]2C(=O)N[C@H](C(C)C)C(=O)N3CCC[C@H]3C(=O)N(C)CC(=O)N[C@@H](Cc3ccccc3)C(=O)O[C@@H]2C)c(N)c1=O
inhibition [1]: 78.8% | IC50 [2]: 1800 nM | inhibition [4]: 56.8%

Cc1c2oc3c(C)ccc(C(=O)N[C@@H]4C(=O)N[C@H](C(C)C)C(=O)N5CCC[C@H]5C(=O)N(C)CC(=O)N[C@H](Cc5ccc(O)cc5)C(=O)O[C@@H]4C)c3nc-2c(C(=O)N[C@@H]2C(=O)N[C@H](C(C)C)C(=O)N3CCC[C@H]3C(=O)N(C)CC(=O)N[C@H](Cc3ccc(O)cc3)C(=O)O[C@@H]2C)c(N)c1=O (stereo in doubt; 12) [listing 2 of 2 here]
IC50 [2]: 800 nM

Cc1c2oc3c(C)ccc(C(=O)N[C@@H]4C(=O)N[C@H](C(C)C)C(=O)N5CCC[C@H]5C(=O)N(C)CC(=O)N[C@H](Cc5ccc(O)cc5)C(=O)O[C@@H]4C)c3nc-2c(C(=O)N[C@@H]2C(=O)N[C@H](C(C)C)C(=O)N3CCC[C@H]3C(=O)N(C)CC(=O)N[C@H](Cc3ccc(O)cc3)C(=O)O[C@@H]2C)c(N)c1=O (stereo in doubt; 5) [listing 2 of 2 here]
IC50 [2]: > 10000 nM

Cc1c2oc3c(C)ccc(C(=O)N[C@@H]4C(=O)N[C@H](C(C)C)C(=O)N5CCC[C@H]5C(=O)N(C)CC(=O)N(C)[C@@H](C(C)C)C(=O)O[C@@H]4C)c3nc-2c(C(=O)N[C@@H]2C(=O)N[C@H](C(C)C)C(=O)N3CCC[C@H]3C(=O)N(C)CC(=O)N(C)[C@@H](C(C)C)C(=O)O[C@@H]2C)c(N)c1=O [DACTINOMYCIN] (I: T[dV]P[Sar][NMeV] / II: T[dV]P[Sar][NMeV]; ester I:1-I:C, II:1-II:C; linker I:N-II:N via Actinocin(1to9))
inhibition [1]: 50.5% | IC50 [2]: 5000 nM | GI50 [3]: 0.7 nM | inhibition [4]: 40.1%

CC[C@@H](C)[C@H]1NC(=O)[C@@H](NC(=O)c2c3nc4c(C(=O)N[C@@H]5C(=O)N[C@H]([C@H](C)CC)C(=O)N6CCC[C@H]6C(=O)N(C)CC(=O)N[C@@H](C(C)C)C(=O)O[C@@H]5C)ccc(C)c4oc-3c(C)c(=O)c2N)[C@@H](C)OC(=O)[C@H](C(C)C)NC(=O)CN(C)C(=O)[C@@H]2CCCN2C1=O
inhibition [1]: 40.8% | IC50 [2]: 5900 nM | GI50 [3]: 0.8 nM | inhibition [4]: 30.9%

COc1ccc(C[C@H]2NC(=O)[C@@H](NC(=O)c3c4nc5c(C(=O)N[C@@H]6C(=O)N[C@H](Cc7ccc(OC)cc7)C(=O)N7CCC[C@H]7C(=O)N(C)CC(=O)N[C@@H](C(C)C)C(=O)O[C@@H]6C)ccc(C)c5oc-4c(C)c(=O)c3N)[C@@H](C)OC(=O)[C@H](C(C)C)NC(=O)CN(C)C(=O)[C@@H]3CCCN3C2=O)cc1
inhibition [1]: 80.6% | IC50 [2]: 1500 nM | GI50 [3]: 10 nM | inhibition [4]: 69.7%

COc1ccc(C[C@H]2NC(=O)CN(C)C(=O)[C@@H]3CCCN3C(=O)[C@@H](C(C)C)NC(=O)[C@@H](NC(=O)c3c4nc5c(C(=O)N[C@@H]6C(=O)N[C@H](C(C)C)C(=O)N7CCC[C@H]7C(=O)N(C)CC(=O)N[C@H](Cc7ccc(OC)cc7)C(=O)O[C@@H]6C)ccc(C)c5oc-4c(C)c(=O)c3N)[C@@H](C)OC2=O)cc1
inhibition [1]: 73% | IC50 [2]: 2000 nM | inhibition [4]: 46.9%

Cc1c2oc3c(C)ccc(C(=O)N[C@@H]4C(=O)N[C@H](Cc5ccc(O)cc5)C(=O)N5CCC[C@H]5C(=O)N(C)CC(=O)N[C@@H](C(C)C)C(=O)O[C@@H]4C)c3nc-2c(C(=O)N[C@@H]2C(=O)N[C@H](Cc3ccc(O)cc3)C(=O)N3CCC[C@H]3C(=O)N(C)CC(=O)N[C@@H](C(C)C)C(=O)O[C@@H]2C)c(N)c1=O (stereo in doubt; 7) [listing 1 of 2 here]
inhibition [1]: 56.6% | inhibition [4]: 42.9%

Cc1c2oc3c(C)ccc(C(=O)N[C@@H]4C(=O)N[C@H](Cc5ccc(O)cc5)C(=O)N5CCC[C@H]5C(=O)N(C)CC(=O)N[C@@H](C(C)C)C(=O)O[C@@H]4C)c3nc-2c(C(=O)N[C@@H]2C(=O)N[C@H](Cc3ccc(O)cc3)C(=O)N3CCC[C@H]3C(=O)N(C)CC(=O)N[C@@H](C(C)C)C(=O)O[C@@H]2C)c(N)c1=O (stereo in doubt; 7) [listing 2 of 2 here]
IC50 [2]: 4500 nM

Cc1c2oc3c(C)ccc(C(=O)N[C@@H]4C(=O)N[C@H](C(C)C)C(=O)N5CCC[C@H]5C(=O)N(C)CC(=O)N[C@H](Cc5ccccc5)C(=O)O[C@@H]4C)c3nc-2c(C(=O)N[C@@H]2C(=O)N[C@H](C(C)C)C(=O)N3CCC[C@H]3C(=O)N(C)CC(=O)N[C@H](Cc3ccccc3)C(=O)O[C@@H]2C)c(N)c1=O
inhibition [1]: 87.7% | IC50 [2]: 900 nM | GI50 [3]: 3 nM | inhibition [4]: 75.1%

COc1ccc(C[C@@H]2NC(=O)CN(C)C(=O)[C@@H]3CCCN3C(=O)[C@@H](C(C)C)NC(=O)[C@@H](NC(=O)c3c4nc5c(C(=O)N[C@@H]6C(=O)N[C@H](C(C)C)C(=O)N7CCC[C@H]7C(=O)N(C)CC(=O)N[C@@H](Cc7ccc(OC)cc7)C(=O)O[C@@H]6C)ccc(C)c5oc-4c(C)c(=O)c3N)[C@@H](C)OC2=O)cc1
inhibition [1]: 73.8% | IC50 [2]: 2000 nM | inhibition [4]: 55.1%

Cc1c2oc3c(C)ccc(C(=O)N[C@@H]4C(=O)N[C@H](C(C)C)C(=O)N5CCC[C@H]5C(=O)N(C)CC(=O)N[C@@H](Cc5ccc(O)cc5)C(=O)O[C@@H]4C)c3nc-2c(C(=O)N[C@@H]2C(=O)N[C@H](C(C)C)C(=O)N3CCC[C@H]3C(=O)N(C)CC(=O)N[C@@H](Cc3ccc(O)cc3)C(=O)O[C@@H]2C)c(N)c1=O (stereo in doubt; 8) [listing 2 of 2 here]
IC50 [2]: > 10000 nM
